Data published in US20130259929A1, “USE OF A PHOSPHOPEPTIDE ABLE TO BLOCK HER3/P85 INTERACTION FOR THE TREATMENT OF HER2 HYPER-EXPRESSING TUMOURS” (priority 2010, published 2013).
Non-standard residues stand in square brackets, D forms with d. No end group written: not given here. pY = N[C@@H](Cc1ccc(OP(=O)(O)O)cc1)C(=O)O

Legend:
[1] = system: PI3K activity measured as Akt phosphorylation; assay: Akt phosphorylation (Western blot) after peptide transfection; type: cell-based, human; settings: for inhibition of PI3K activity measured as inhibition level of Akt phosphorylation: MCF7 cells, peptide transfection at different doses (FIG. 12)
Protocol: (§1) Peptide transfection. In order to inhibit the p85 and ErbB3 interaction, MCF7, BT474 and MDA-MB-453 cell lines have been transfected using 80, 100, and 180 μg, respectively, of the following phosphopeptides:
(§2) Treatments and lmmunodecorations. […] Briefly the cells have been plated at 5×10^5 concentration in 60 mm plates. […] At the end of the treatment the cells have been lysed with RIPA buffer [150 mM NaCl, 1% NP-40, 0,5% sodium deoxycholate (DOC), 0.1% SDS, 50 mM TrisHCl (pH 8), 1 mM PMSF, 1 mM EGTA, 50 mM NaF, 50 mM Na3VO4 and protease inhibitors (Roche, Milano, IT)] in order to analyze the expression levels of phosphorylated and total ErbB-3, ErbB-2, ERK and HSP-70 proteins. In order to analyze the levels of Akt phosphorylation and expression, the cells have been lysed in NP-40 buffer [1% NP-40, 10% glycerol, 137 mM NaCl, 20 mM TrisHCl (pH 7.4), 50 mM NaF, 1 mM PMSF, 5 mM Na3VO4, protease inhibitors (Roche, Milano, IT)]. Cell lysates have been incubated on ice for 20 minutes and centrifuged at 14000 rpm for 20 minutes. RIPA buffer obtained cell extracts have been boiled for 5 minutes at 95° C., while NP40 buffer lysed samples have been boiled at 65° C. for 5 minutes. Samples have been subjected to SDS-PAGE and transferred on nitrocellulose filters (Bio-Rad, Milan, IT). Then the filters have been incubated with interest antibodies, washed and incubated with specific secondary horse radish peroxidase (HRP) conjugated antibodies. After thorough washing, nitrocellulose peroxidase activity has been detected by chemiluminescence (Lite-blot-Euroclone, Milano, IT)

[2] = system: MAPK phosphorylation; assay: MAPK (ERK1/2) phosphorylation (Western blot) after peptide transfection; type: cell-based, human; settings: MCF7, BT474 and MDA-MB-453 cells (FIG. 4A); Herceptin where combined
Protocol: as §1
as §2, with “Samples have been subjected to SDS-PAGE and transferred on nitrocellulose filters (Bio-Rad, Milan, IT). Then the filters have been incubated with interest antibodies, washed and incubated with specific secondary horse radish peroxidase (HRP) conjugated antibodies.” left out

[3] = target: T1, p85 and HER3 interaction (Homo sapiens, UniProt P27986); assay: Immunoprecipitation with anti-p85, blot anti-HER3, in transfected cells; type: cell-based; settings: three cell lines, 48 hr after Lipofectamine transfection (FIG. 2B)
T1 construct: Whole cell lysates have been imunoprecipitated with anti-p85 antibody; endogenous in cells; host or cells: MCF7, BT474, MDA-MB-453
Source text: Immunoprecipitation. MCF7, BT474 and MDA-MB-453 cell lines have been plated at 5×10^5 concentration in 60 mm plates. On subsequent day cells have been transfected with 1257 phosphopeptide and contrrol phosphopeptide. […] Whole cell lysates have been imunoprecipitated with anti-p85 antibody (#06-496) in the presence of protein G (Pierce, Milan, IT). Whole proteins and immunocomplexes then have been subjected to 8% SDS-PAGE and transferred on nitrocellulose filter. The proteins have been detected by immunodecoration using anti-ErbB3 and anti-p110α antibodies.
(§3) The peptide has been transfected using Lipofectamine in all three cell lines. […] This binding is required in order PI3K kinase to be activated.

[4] = target: T2, p85 and p110a (PI3K catalytic sub-unit) interaction (Homo sapiens, UniProt P27986); assay: Immunoprecipitation with anti-p85, blot anti-p110α, in transfected cells; type: cell-based; settings: transfected cells (FIG. 2D)
T2 construct: Whole cell lysates have been imunoprecipitated with anti-p85 antibody; endogenous in cells; host or cells: MCF7, BT474, MDA-MB-453
Protocol: Immunoprecipitation. MCF7, BT474 and MDA-MB-453 cell lines have been plated at 5×10^5 concentration in 60 mm plates. On subsequent day cells have been transfected with 1257 phosphopeptide and contrrol phosphopeptide. After 40 hours the cells have been washed two times with cold PBS and extracted with lysis buffer [(50 mM Tris HCl (pH 7.4), 250 mM NaCl, 0.1% Triton X-100, 5 mM EDTA, 50 mM NaF, 1 mM PMSF, 5 mM Na3VO4 e 50 mmol/L protease inhibitors (Roche, Milan, IT)]. Whole cell lysates have been imunoprecipitated with anti-p85 antibody (#06-496) in the presence of protein G (Pierce, Milan, IT). Whole proteins and immunocomplexes then have been subjected to 8% SDS-PAGE and transferred on nitrocellulose filter. The proteins have been detected by immunodecoration using anti-ErbB3 and anti-p110α antibodies.
as §3

[5] = system: HER3; assay: HER3 expression level (Western blot) after peptide transfection; type: cell-based, human; settings: after peptide treatment (FIG. 4A); poorly appreciable in MDA-MB-453
Protocol: as §2

[6] = system: HER2; assay: HER2 expression level and ErbB-2 homodimer (Western blot) after peptide transfection; type: cell-based, human
Protocol: as §2

[7] = system: BT474 cells; assay: Cell death and apoptosis (Trypan Blue exclusion); type: cell-based, human; settings: BT474 cells vs parental or scr transfected; Herceptin 1 μg/ml 40 hours where combined
Source text: (§4) Cell death and Apoptosis. MCF7, BT474 and MDA-MB-453 cell lines have been plated at 5×10^5 concentration in 60 mm plates. On subsequent day the cells have been transfected with ErbB3 specific interference oligonucleotides or peptides. […] The cells have been washed two times with cold PBS and then trypsin collected. The evaluation of cellular viability has been carried out by means of Trypan Blue exclusion. The use of anti-PARP antibody in Western Blotting analysis allowed apoptosis to be evaluated. Briefly the cells have been lysed in RIPA buffer [150 mM NaCl, 1% NP-40, 0,5% sodium deoxycholate (DOC), 0.1% SDS, 50 mM TrisHCl (pH 8), 1 mM PMSF, 1 mM EGTA, 50 mM NaF, 50 mM Na3VO4 and protease inhibitors (Roche, Milano, IT)]. The samples have been boiled for 5 minutes at 95° C., resolved using SDS-PAGE, transferred on nitrocellulose and blotted using anti-PARP antibody. The tumour cell death analyzed by immunohistochemistry have been obtained using TUNEL assay.

[8] = system: MCF7 cells; assay: Cell death and apoptosis (Trypan Blue exclusion); type: cell-based, human; settings: MCF7 cells vs parental or scr transfected; Herceptin 1 μg/ml 40 hours where combined
Source text: as §4

T2 sequence (P27986 whole entry): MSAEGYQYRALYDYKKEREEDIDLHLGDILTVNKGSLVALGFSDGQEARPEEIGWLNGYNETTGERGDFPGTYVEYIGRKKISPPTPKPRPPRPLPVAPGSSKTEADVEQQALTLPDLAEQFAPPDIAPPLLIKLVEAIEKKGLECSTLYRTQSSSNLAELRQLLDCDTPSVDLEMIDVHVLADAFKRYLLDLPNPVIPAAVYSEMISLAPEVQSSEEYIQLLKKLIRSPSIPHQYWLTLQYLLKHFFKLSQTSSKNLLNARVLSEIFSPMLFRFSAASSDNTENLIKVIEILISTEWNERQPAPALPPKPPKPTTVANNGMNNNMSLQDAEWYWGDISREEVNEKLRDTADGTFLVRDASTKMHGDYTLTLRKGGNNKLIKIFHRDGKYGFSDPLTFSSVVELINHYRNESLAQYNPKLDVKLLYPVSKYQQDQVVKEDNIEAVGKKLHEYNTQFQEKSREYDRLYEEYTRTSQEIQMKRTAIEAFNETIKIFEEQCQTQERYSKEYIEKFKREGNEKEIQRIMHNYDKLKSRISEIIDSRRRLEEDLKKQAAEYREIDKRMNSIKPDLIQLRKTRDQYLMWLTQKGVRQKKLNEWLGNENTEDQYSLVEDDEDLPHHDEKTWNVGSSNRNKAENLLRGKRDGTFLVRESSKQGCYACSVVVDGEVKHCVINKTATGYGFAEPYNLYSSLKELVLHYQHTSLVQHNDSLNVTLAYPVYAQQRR
T1 sequence (P27986 whole entry): as above

RDGGGPGGDpYAAMGACPA (RDGGGPGGD[pY]AAMGACPA; listed as Homo sapiens) [1257 phosphopeptide]
phosphorylation of Akt ([1]; MCF7, BT474 and MDA-MB-453 cells (FIG. 4A), Herceptin where combined): inhibition the phosphorylation of Akt
inhibition of PI3K activity measured as inhibition level of Akt phosphorylation [1]: remarkably inhibits Akt phosphorylation
inhibition of PI3K activity measured as inhibition level of Akt phosphorylation ([1]; listed as 1257 peptide): high efficiency
time after transfection for which Akt phosphorylation is inhibited ([1]; stability inside of cell (FIG. 5A)): up to 6 days
MAPK phosphorylation [2]: inhibition of MAPK phosphorylation
inhibition of p85 and HER3 interaction [3]: inhibits effectively p85 and HER3 interaction
inhibition of p85 and p110a interaction [4]: inhibits p85 from interacting with p110a
total level of HER3 [5]: decrease
total level of HER2 ([6]; after peptide treatment (FIG. 4A), poorly appreciable in MDA-MB-453): decrease
ErbB-2 homodimer levels ([6]; not reducing conditions (FIG. 5B)): favours the formation of ErbB-2 homodimer
cell death, times higher than controls [7]: 4 times
cell death, times higher than controls [8]: 3 times
